Experimental data from patent US8003654B2, “N-glycinsulfonamide derivatives and uses as orexin receptor antagonists” (Actelion Pharmaceuticals Ltd., priority 2006, dated 2011).

Legend:
human orexin-1 receptor = target: T1, human orexin-1 receptor (Homo sapiens, UniProt O43613); assay: Intracellular calcium measurements (FLIPR), antagonism of 10 nM orexin-A in CHO cells expressing the human orexin-1 receptor; type: cell-based; conditions: CHO cells expressing human orexin-1 receptor, agonist 10 nM orexin-A, read-out: OX1 IC50
T1 construct: expressed in transfected cells; host or cells: CHO cells (G418 selection)
T1 sequence (O43613 1-425): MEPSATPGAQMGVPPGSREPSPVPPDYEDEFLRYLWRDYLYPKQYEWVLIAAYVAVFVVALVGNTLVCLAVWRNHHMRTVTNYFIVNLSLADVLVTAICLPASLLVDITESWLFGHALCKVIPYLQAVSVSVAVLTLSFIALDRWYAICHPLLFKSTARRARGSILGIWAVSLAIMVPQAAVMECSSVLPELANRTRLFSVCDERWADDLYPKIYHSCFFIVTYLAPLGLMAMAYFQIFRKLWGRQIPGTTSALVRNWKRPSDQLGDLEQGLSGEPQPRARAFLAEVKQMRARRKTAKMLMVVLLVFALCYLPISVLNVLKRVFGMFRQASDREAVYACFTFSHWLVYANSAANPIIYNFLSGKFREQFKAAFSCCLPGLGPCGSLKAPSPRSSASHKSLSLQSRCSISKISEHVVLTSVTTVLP
Protocol: (§1) The orexin receptor antagonistic activity of the compounds of formula (I) is determined in accordance with the following experimental method.
(§2) • Intracellular Calcium Measurements:
(§3) Chinese hamster ovary (CHO) cells expressing the human orexin-1 receptor and the human orexin-2 receptor, respectively, are grown in culture medium (Ham F-12 with L-Glutamine) containing 300 μg/ml G418, 100 U/ml penicillin, 100 μg/ml streptomycin and 10% inactivated fetal calf serum (FCS). The cells are seeded at 80,000 cells/well into 96-well black clear bottom sterile plates (Costar) which have been precoated with 1% gelatine in Hanks' Balanced Salt Solution (HBSS). All reagents are from Gibco BRL. The seeded plates are incubated overnight at 37° C. in 5% CO2.
(§4) Human orexin-A as an agonist is prepared as 1 mM stock solution in methanol:water (1:1), diluted in HBSS containing 0.1% bovine serum albumin (BSA) and 2 mM HEPES for use in the assay at a final concentration of 10 nM.
(§5) Antagonists are prepared as 10 mM stock solution in DMSO, then diluted in 96-well plates, first in DMSO, then in HBSS containing 0.1% bovine serum albumin (BSA) and 2 mM HEPES.
(§6) On the day of the assay, 100 μl of loading medium (HBSS containing 1% FCS, 2 mM HEPES, 5 mM probenecid (Sigma) and 3 μM of the fluorescent calcium indicator fluo-3 AM (1 mM stock solution in DMSO with 10% pluronic acid) (Molecular Probes) is added to each well.
(§7) The 96-well plates are incubated for 60 min at 37° C. in 5% CO2. The loading solution is then aspirated and cells are washed 3 times with 200 μl HBSS containing 2.5 mM probenecid, 0.1% BSA, 2 mM HEPES. 100 μl of that same buffer is left in each well.
(§8) Within the Fluorescent Imaging Plate Reader (FLIPR, Molecular Devices), antagonists are added to the plate in a volume of 50 μl, incubated for 20 min and finally 100 μl of agonist is added. Fluorescence is measured for each well at 1 second intervals, and the height of each fluorescence peak is compared to the height of the fluorescence peak induced by 10 nM orexin-A with buffer in place of antagonist. For each antagonist, IC50 value (the concentration of compound needed to inhibit 50% of the agonistic response) is determined. Antagonistic activities of compounds are in the nanomolar range with respect to OX1 and OX2 receptors.

human orexin-2 receptor = target: T2, human orexin-2 receptor (Homo sapiens, UniProt O43614); assay: Intracellular calcium measurements (FLIPR), antagonism of 10 nM orexin-A in CHO cells expressing the human orexin-2 receptor; type: cell-based; conditions: CHO cells expressing human orexin-2 receptor, agonist 10 nM orexin-A, read-out: OX2 IC50
T2 construct: expressed in transfected cells; host or cells: CHO cells (G418 selection)
T2 sequence (O43614 1-444): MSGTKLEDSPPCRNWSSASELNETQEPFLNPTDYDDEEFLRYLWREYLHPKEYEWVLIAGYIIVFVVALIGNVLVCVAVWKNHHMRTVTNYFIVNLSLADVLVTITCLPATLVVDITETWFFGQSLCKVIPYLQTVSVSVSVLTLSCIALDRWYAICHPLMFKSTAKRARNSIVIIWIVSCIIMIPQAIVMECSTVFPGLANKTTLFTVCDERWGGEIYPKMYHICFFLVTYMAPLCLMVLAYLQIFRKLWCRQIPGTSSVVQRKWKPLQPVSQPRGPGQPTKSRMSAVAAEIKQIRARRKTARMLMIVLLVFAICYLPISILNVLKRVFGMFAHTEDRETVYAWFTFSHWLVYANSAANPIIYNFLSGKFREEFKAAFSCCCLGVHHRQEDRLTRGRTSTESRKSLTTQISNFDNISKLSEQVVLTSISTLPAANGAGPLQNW
Protocol: as §1, §2, §3, §4, §5, §6, §7, §8

Row | Structure (SMILES) | IC50 (human orexin-1 receptor) | IC50 (human orexin-2 receptor)
1 | CCN(Cc1cccc(C)n1)C(=O)CN(c1cc2c(C)nsc2cc1Cl)S(=O)(=O)c1ccc(OC)c(OC)c1 [Example 21, 2-[(6-Chloro-3-methyl-benzo[d]isothiazol-5-yl)-(3,4-dimethoxy-benzenesulfonyl)-amino]-N-ethyl-N-(6-methyl-pyridin-2-ylmethyl)-acetamide] | 8 nM | 7 nM
2 | CCN(Cc1cncc(C)n1)C(=S)CN(c1cc(N(C)C)ccc1Cl)S(=O)(=O)c1ccc(OC)c(OC)c1 [Example 14, 2-[(2-Chloro-5-dimethylamino-phenyl)-(3,4-dimethoxy-benzenesulfonyl)-amino]-N-ethyl-N-(6-methyl-pyrazin-2-ylmethyl)-thioacetamide] | 15 nM | 12 nM
3 | COc1ccc(S(=O)(=O)N(CC(=O)N(CCO)Cc2ccccn2)c2cc(N(C)C)ccc2Cl)cc1OC [Example 55, 2-[(2-Chloro-5-dimethylamino-phenyl)-(3,4-dimethoxy-benzenesulfonyl)-amino]-N-(2-hydroxy-ethyl)-N-pyridin-2-ylmethyl-acetamide] | 63 nM | 7 nM

Second part, the compound after the results:

Row | IC50 (human orexin-1 receptor) | IC50 (human orexin-2 receptor) | Structure (SMILES)
4 | 180 nM | 2 nM | CCN(CC)C(=O)CN(c1ccc(Cl)cc1C#N)S(=O)(=O)c1ccc(OC)c(OC)c1 [Example 27, 2-[(4-Chloro-2-cyano-phenyl)-(3,4-dimethoxy-benzenesulfonyl)-amino]-N,N-diethyl-acetamide]
5 | 166 nM | 10 nM | CCN(CC)C(=O)CN(c1cc(N(C)C)ccc1C#N)S(=O)(=O)c1ccc(OC)c(OC)c1 [Example 58, 2-[(2-Cyano-5-dimethylamino-phenyl)-(3,4-dimethoxy-benzenesulfonyl)-amino]-N,N-diethyl-acetamide]
